What was measured:
Type in all cases: biochemical, Pseudomonas putida
[1] = test system: PpGluDH-A167G; assay: Catalytic activity toward other keto acid substrates by spectrophotometry, A167G mutant; conditions: keto acid as substrate; for Specific activity (U/mg) A167G: PpGluDH-A167G; for Catalytic activity of PpGluDH-A167G compared with the wild type: result in words
[2] = test system: wild type PpGluDH; assay: Catalytic activity toward other keto acid substrates by spectrophotometry, wild type; conditions: keto acid as substrate
[3] = test system: PpGluDH-V378A; assay: Catalytic activity toward other keto acid substrates by spectrophotometry, V378A mutant; conditions: keto acid as substrate; for Specific activity (U/mg) V378A: PpGluDH-V378A; for Catalytic activity of PpGluDH-V378A compared with the wild type: result in words

O=C(O)CCC(=O)C(=O)O [1a, 2-Ketoglutaric acid]
Specific activity (U/mg) A167G [1]: 314.41 U/mg | Catalytic activity of PpGluDH-A167G compared with the wild type [1]: improved catalytic activity | Specific activity (U/mg) Wild [2]: 189.05 U/mg | Specific activity (U/mg) V378A [3]: 268.48 U/mg | Catalytic activity of PpGluDH-V378A compared with the wild type [3]: improved catalytic activity

CC(=O)C(=O)O [2a, Pyruvic acid]
Specific activity (U/mg) A167G [1]: <0.01 U/mg | Specific activity (U/mg) Wild [2]: 0.15 U/mg | Specific activity (U/mg) V378A [3]: 0.01 U/mg

CCC(=O)C(=O)O [3a, 2-Ketobutyric acid]
Specific activity (U/mg) A167G [1]: 0.09 U/mg | Specific activity (U/mg) Wild [2]: 4.93 U/mg | Specific activity (U/mg) V378A [3]: 0.34 U/mg

CC(C)C(=O)C(=O)O [4a, 3-Methyl-2-oxobutanoic acid]
Specific activity (U/mg) A167G [1]: <0.01 U/mg | Specific activity (U/mg) Wild [2]: 0.37 U/mg | Specific activity (U/mg) V378A [3]: 0.04 U/mg

CCCC(=O)C(=O)O [6a, 2-Oxovaleric acid]
Specific activity (U/mg) A167G [1]: 1.21 U/mg | Specific activity (U/mg) Wild [2]: 6.39 U/mg | Specific activity (U/mg) V378A [3]: 2.37 U/mg

CCC(C)C(=O)C(=O)O (stereo not drawn) [7a, 3-Methyl-2-Oxovaleric acid]
Specific activity (U/mg) A167G [1]: <0.01 U/mg | Specific activity (U/mg) Wild [2]: 0.07 U/mg | Specific activity (U/mg) V378A [3]: 0.03 U/mg

CC(C)CC(=O)C(=O)O [8a, 4-Methyl-2-Oxovaleric acid]
Specific activity (U/mg) A167G [1]: 0.01 U/mg | Specific activity (U/mg) Wild [2]: 0.05 U/mg | Specific activity (U/mg) V378A [3]: 0.03 U/mg

CCCCC(=O)C(=O)O [9a, 2-Ketohexanoic acid]
Specific activity (U/mg) A167G [1]: 1.23 U/mg | Catalytic activity of PpGluDH-A167G compared with the wild type [1]: improved catalytic activity | Specific activity (U/mg) Wild [2]: 0.71 U/mg | Specific activity (U/mg) V378A [3]: 1.49 U/mg | Catalytic activity of PpGluDH-V378A compared with the wild type [3]: improved catalytic activity

O=C(O)C(=O)c1ccccc1 [10a, Phenylglyoxylic acid]
Specific activity (U/mg) A167G [1]: 0.01 U/mg | Specific activity (U/mg) Wild [2]: 0.04 U/mg | Specific activity (U/mg) V378A [3]: 0.01 U/mg

O=C(O)C(=O)Cc1ccccc1 [11a, Phenylpyruvic acid]
Specific activity (U/mg) A167G [1]: <0.01 U/mg | Specific activity (U/mg) Wild [2]: <0.01 U/mg | Specific activity (U/mg) V378A [3]: <0.01 U/mg

O=C(O)C(=O)CCc1ccccc1 [12a, 2-Oxo-4-phenylbutyric acid]
Specific activity (U/mg) A167G [1]: 0.33 U/mg | Catalytic activity of PpGluDH-A167G compared with the wild type [1]: improved to some extent | Specific activity (U/mg) Wild [2]: 0.08 U/mg | Specific activity (U/mg) V378A [3]: 0.04 U/mg | Catalytic activity of PpGluDH-V378A compared with the wild type [3]: decreased

O=C(O)C(=O)Cc1ccc(O)cc1 [13a, 4-hydroxyphenylpyruvic acid]
Specific activity (U/mg) A167G [1]: <0.01 U/mg | Specific activity (U/mg) Wild [2]: 0.02 U/mg | Specific activity (U/mg) V378A [3]: <0.01 U/mg

Source: patent US10865391B2, “Glutamate dehydrogenase mutants and their application in preparation of L-phosphinothricin” (ZHEJIANG UNIVERSITY, priority 2018, dated 2020)
